Test results as given in PubChem BioAssay AID248 (DTP/NCI, 2004).
Inconclusive results and toxic doses are left out. Cut-off read from the data, not from the text of the source: active = T/C of 150% or more; inactive = T/C below 125%.

Test system: L1210 leukemia ip in BDF1 mice, survival T/C
Test: NCI In Vivo Anticancer Drug Screen. Data for tumor model L1210 Leukemia (intraperitoneal) in B6D2F1 (BDF1) mice
Settings: endpoint: mean survival time, higher = longer survival
Summary of the method: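 Read-out is survival time, reported as the treated-group measurement over the vehicle-control measurement.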

Measured: T/C

CCCCCCCCCCCCBr
inactive: dose: 100.0 mg/kg/injection, schedule: Q04DX002 (ip), vehicle: saline with Tween-80 102 % of control | dose: 200.0 mg/kg/injection, schedule: Q04DX002 (ip), vehicle: saline with Tween-80 97 % of control | dose: 400.0 mg/kg/injection, schedule: Q04DX002 (ip), vehicle: saline with Tween-80 102 % of control

OC(c1nc2ccc(Cl)cc2[nH]1)C(O)c1nc2ccc(Cl)cc2[nH]1 (centres undefined)
inactive: dose: 75.0 mg/kg/injection, schedule: Q01DX001 (ip), vehicle: other 102 % of control | dose: 150.0 mg/kg/injection, schedule: Q01DX001 (ip), vehicle: other 96 % of control | dose: 300.0 mg/kg/injection, schedule: Q01DX001 (ip), vehicle: other 91 % of control

O=C(COc1ccc(Cl)cc1Cl)Nc1ccc2ccccc2c1S(=O)(=O)O
inactive: dose: 25.0 mg/kg/injection, schedule: Q04DX002 (ip), vehicle: Klucel (hydroxypropylcellulose) (HPC) 112 % of control | dose: 50.0 mg/kg/injection, schedule: Q04DX002 (ip), vehicle: Klucel (hydroxypropylcellulose) (HPC) 98 % of control | dose: 100.0 mg/kg/injection, schedule: Q04DX002 (ip), vehicle: Klucel (hydroxypropylcellulose) (HPC) 94 % of control
